# What was measured:
# Assay in all cases: Standard BLI potentiation MIC assay
# Assay type in all cases: cell-based
# [1] = test system: Kpn.2909 (KPC-3, SHV+, TEM+, clinical); conditions: Klebsiella pneumoniae, read-out: MIC of β-lactam with BLI
# Procedure: (§1) The experimental protocol was performed according to Clinical and Laboratory Standards Institute (CLSI) guidelines with modifications as described below (CLSI guidelines can be derived from the CLSI document M07-A9 published in January 2012: “Methods for Dilution Antimicrobial Susceptibility Tests for Bacteria That Grow Aerobically; Approved Standard-Ninth Edition”).
# (§2) To prepare for MIC testing, frozen glycerol stocks of clinical isolates (Klebsiella pneumoniae, Eschericia coli, Enterobacter spp, Citrobacter spp, or Pseudomonas aeruginosa) were used to streak for isolated colonies on rich, non-selective, tryptic soy agar containing 5% sheep's blood (TSAB). Frozen glycerol stocks of laboratory engineered, isogenic E. coli strains, which contain cloned β-lactamase expressing plasmids were used to streak for isolated colonies on rich, selective LB agar supplemented with 25 μg/mL tetracycline to maintain the plasmid. All strains were incubated at 37° C. for 18-24 hrs.
# (§3) On the day of testing, primary cultures were started by scraping off 5-10 colonies from the TSAB plates containing clinical strains or the tetracycline supplemented LB plates containing engineered strains. The clinical strain material was suspended in ˜5 mL of cation adjusted Mueller Hinton Broth (CAMHB) in 14 mL culture tubes. The engineered strain material was suspended in CAMHB (supplemented with 25 μg/mL tetracycline) in 14 mL culture tubes. All strains were incubated at 37° C. with aeration (200 rpm) for ˜2 hrs until the optical density at 600 nm (OD600) was ≧0.1.
# (§4) The two compound components of the assay were each diluted in CAMHB and added to the 96-well broth microdilution assay plates. 50 μL of the β-lactam was added to each well of the assay plate in 2-fold dilutions with final concentrations ranging from 128 to 0.13 μg/mL. 25 μL of the BLI compound was added to all wells in the broth microdilution plates at a final concentration of 4 μg/mL. Inoculum cultures were prepared by standardizing the primary cultures to OD600=0.1 and then adding 20 μL of the adjusted primary culture per 1 mL CAMHB for clinical strains or CAMHB (supplemented with tetracycline at 100 μg/mL) for engineered strains, so that the final inoculum density was ˜10^5 colony forming units per milliliter. Diluted inoculum cultures were used to inoculate 25 μL per well in 96-well broth microdilution assay plates. The final volume of each well was 100 μL and contained a β-lactam at different concentrations, a BLlcompound at 4 μg/mL concentration, the bacterial culture at an OD600 of approximately 0.001 and when necessary tetracycline at 25 μg/mL.
# (§5) Plates were incubated for 18-20 hours at 37° C. with aeration (200 rpm). Following incubation, growth was confirmed visually placing plates over a viewing apparatus (stand with a mirror underneath) and then OD600 was measured using a SpectraMax 340PC384 plate reader (Molecular Devices, Sunnyvale, Calif.). Growth was defined as turbidity that could be detected with the naked eye or achieving minimum OD600 of 0.1. MIC values were defined as the lowest concentration producing no visible turbidity.
# [2] = test system: Pae.2808 (KPC-2, clinical); conditions: Pseudomonas aeruginosa, read-out: MIC of β-lactam with BLI
# Procedure: as §1, §2, §3, §4, §5
# [3] = test system: Kpn.2913 (KPC-2, SHV+, clinical); conditions: Klebsiella pneumoniae, read-out: MIC of β-lactam with BLI
# Procedure: as §1, §2, §3, §4, §5
# [4] = test system: Kpn.2478 (KPC-2, TEM+, clinical); conditions: Klebsiella pneumoniae, read-out: MIC of β-lactam with BLI
# Procedure: as §1, §2, §3, §4, §5
# [5] = test system: Kpn.2914 (KPC-2, SHV+, clinical); conditions: Klebsiella pneumoniae, read-out: MIC of β-lactam with BLI
# Procedure: as §1, §2, §3, §4, §5
# [6] = test system: Kpn.2917 (KPC-2, SHV+, clinical); conditions: Klebsiella pneumoniae, read-out: MIC of β-lactam with BLI
# Procedure: as §1, §2, §3, §4, §5
# [7] = test system: Pae.2885 (AmpC, clinical); conditions: Pseudomonas aeruginosa, read-out: MIC of β-lactam with BLI
# Procedure: as §1, §2, §3, §4, §5
# [8] = test system: Kpn.2918 (KPC-3, SHV+, TEM+, clinical); conditions: Klebsiella pneumoniae, read-out: MIC of β-lactam with BLI
# Procedure: as §1, §2, §3, §4, §5
smiles,measurement,setting,value
"O=C1N2C[C@@H](CC[C@H]2c2nnco2)N1OS(=O)(=O)[O-].[Na+] [Hydrate 1, sodium (2S,5R)-2-(1,3,4-oxadiazol-2-yl)-7-oxo-1,6-diazabicyclo[3.2.1]octan-6-yl sulfate]",MIC,[1],1 to 2 µg/mL
same,MIC,[2],4 to 8 µg/mL
same,MIC,[3],0.25 to 0.5 µg/mL
same,MIC,[4],4 to 8 µg/mL
same,MIC,[5],1 to 2 µg/mL
same,MIC,[6],0.25 to 0.5 µg/mL
same,MIC,[7],0.25 to 0.5 µg/mL
same,MIC,[8],1 to 2 µg/mL

# Source: patent US9120795B2, “Crystalline form of a β-lactamase inhibitor” (Cubist Pharmaceuticals, Inc., priority 2013, dated 2015)
